pIC50: −log10 of the molar value. Where a name gives a salt, the structure may show the parent alone. Read-outs that look alike come from different tables or passages of the source.
Columns and labels:
ER in MCF-7 cells = ER in MCF-7 cells (Homo sapiens (Human), UniProt P03372); assay: In-cell western (ICW) ER degradation assay in MCF-7 cells (Compounds A1-A70); type: cell-based; conditions: for DC50: ER degradation, 0.02 to 300 nM, read-out: MCF7 ICW DC50; for MCF7 ICW Dmax (%): maximal ER degradation
ERα_LBD(GST) = ERα_LBD(GST) (Homo sapiens (Human), UniProt P03372); assay: IC50 measurements for binding to ERα_LBD (GST), LanthaScreen TR-FRET ERα competitive binding assay; conditions: 4 nM ERα_LBD(GST), 3 nM Fluormone ES2 Green tracer, 60 min; read-out: ERα HTRF IC50
Description: • 1. ERα_LBD(GST) protein: 4 nM • 2. Tb Anti-GST: 2 nM • 3. Fluormone ES2 Green tracer: 3 nM • 4. Incubation time: 60 min • 5. DMSO: 1% • 6. Assay buffer: Adding 1M DTT to Nuclear receptor Buffer K for final 5 mM DTT. • 7. ZPE: 1% DMSO • 8. HPE: 1 μM ARV_471 • 9. LanthaScreen® TR-FRET ERα Competitive Binding Assay (ThermoFisher, #A15887)
• 1) Cherry pick 2 μL 10 mM compound stock to column 1 of a 384 intermediate plate • 2) Add 18 μL DMSO to column 1 to dilute compound to 1 mM. • 3) Transfer 10 μL 1 mM compound to column 1 of a LDV plate. • 4) Add 6 μl DMSO to column 2-10 of the LDV plate. • 5) Compounds undergo 3-fold serial dilution (3 μL+6 μL) in DMSO. • 6) Transfer 120 nL compound solution to assay plate. • ZPE: 120 nL 100% DMSO
Prepare complete nuclear receptor buffer K by adding 1 M DTT to nuclear receptor buffer K for a final concentration of 5 mM DTT. Complete nuclear receptor buffer K must be prepared fresh daily. Prepare 2X protein solution using complete nuclear receptor buffer K containing 8 nM ERα_LBD(GST) and 4 nM Tb Anti-GST. Then, prepare 2× Fluormone ES2 Green tracer (6 nM) using complete nuclear receptor buffer K. Add 6 μL 2× Fluormone ES2 green tracer into a compound plate (PerkinElmer 6008289) by dragonfly with one-tips-addition. Subsequently, add 6 μL 2× protein solution into the plate. Briefly and gently mix the 384-well plate on a plate shaker and incubate at room temperature protected from light for 60 min. The plate is sealed with a cover to minimize evaporation. Read the plate at wavelengths of 520 nm and 495 nm. Calculate the TR-FRET ratio by dividing the emission signal at 520 nm by the emission signal at 495 nm. Generate a binding curve by plotting the emission ratio vs. the log [ligand]. To determine the IC50 value, fit the data using XL-fit for a sigmoidal dose-response.

CRBN/DDB1 = CRBN/DDB1 (Homo sapiens (Human), UniProt Q96SW2); type: binding; conditions: His tagged CRBN+DDB-DLS7+CXU4, Cy5-labeled Thalidomide probe, one hour incubation; read-out: CRBN HTRF IC50
Description: The binding potency was determined using H-TRF assay technology (Perkin Elmer). Compounds were serially diluted in DMSO and 0.2 μL volume was transferred to white 384-well plate.

ER in T47D cells = ER in T47D cells (Homo sapiens (Human), UniProt P03372); assay: In-cell western (ICW) ER degradation assay in T47D cells (Compounds A1-A70); type: cell-based; conditions: for DC50: ER degradation, 0.02 to 300 nM; for Dmax: T47D, read-out: T47D ICW Dmax (%)
[1] = MCF7, maximal ER degradation, MCF-7 cells, 16 hrs treatment, read-out: MCF7 ICW Dmax (%)
[2] = maximal ER degradation, T47D cells, 16 hrs treatment
[3] = MCF7, read-out: MCF7 ICW Dmax (%)

ERα_LBD(GST), sequence (P03372 311-547): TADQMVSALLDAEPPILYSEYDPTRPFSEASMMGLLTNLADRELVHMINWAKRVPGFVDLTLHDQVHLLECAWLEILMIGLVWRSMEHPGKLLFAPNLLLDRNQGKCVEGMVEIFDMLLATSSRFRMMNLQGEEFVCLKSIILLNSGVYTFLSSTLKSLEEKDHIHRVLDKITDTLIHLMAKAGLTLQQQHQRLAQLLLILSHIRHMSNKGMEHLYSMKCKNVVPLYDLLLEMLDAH
ER in T47D cells, sequence (P03372 whole entry): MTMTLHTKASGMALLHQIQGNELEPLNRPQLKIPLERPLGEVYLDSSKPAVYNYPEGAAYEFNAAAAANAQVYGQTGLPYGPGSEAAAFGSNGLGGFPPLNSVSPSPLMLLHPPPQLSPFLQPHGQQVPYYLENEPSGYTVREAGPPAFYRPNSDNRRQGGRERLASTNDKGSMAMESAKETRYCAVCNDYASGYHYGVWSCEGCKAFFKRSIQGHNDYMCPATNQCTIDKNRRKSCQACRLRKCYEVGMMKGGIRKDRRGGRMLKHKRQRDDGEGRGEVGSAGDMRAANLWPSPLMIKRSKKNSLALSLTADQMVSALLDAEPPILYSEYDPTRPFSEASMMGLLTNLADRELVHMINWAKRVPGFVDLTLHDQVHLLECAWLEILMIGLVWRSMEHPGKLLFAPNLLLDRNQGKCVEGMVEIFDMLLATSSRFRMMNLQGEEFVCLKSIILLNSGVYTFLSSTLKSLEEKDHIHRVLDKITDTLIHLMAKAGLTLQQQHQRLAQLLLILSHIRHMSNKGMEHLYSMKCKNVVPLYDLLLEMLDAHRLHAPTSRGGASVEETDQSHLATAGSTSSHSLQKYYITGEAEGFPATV
ER in MCF-7 cells, sequence (P03372 whole entry): as above
CRBN/DDB1, sequence (Q96SW2 whole entry): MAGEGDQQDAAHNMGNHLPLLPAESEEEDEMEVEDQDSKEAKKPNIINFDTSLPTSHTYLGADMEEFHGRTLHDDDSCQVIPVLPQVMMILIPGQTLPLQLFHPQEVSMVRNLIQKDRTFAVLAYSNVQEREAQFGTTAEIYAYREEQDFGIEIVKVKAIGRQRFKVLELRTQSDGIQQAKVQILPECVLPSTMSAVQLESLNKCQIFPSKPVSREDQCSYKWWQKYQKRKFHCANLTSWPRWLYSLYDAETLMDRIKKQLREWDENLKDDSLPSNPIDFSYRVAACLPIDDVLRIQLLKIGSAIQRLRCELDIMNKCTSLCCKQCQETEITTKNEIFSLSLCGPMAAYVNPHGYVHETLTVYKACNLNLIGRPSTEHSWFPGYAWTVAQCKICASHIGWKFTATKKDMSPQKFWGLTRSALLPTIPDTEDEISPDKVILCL
CRBN/DDB1, sequence (Q16531 whole entry partner): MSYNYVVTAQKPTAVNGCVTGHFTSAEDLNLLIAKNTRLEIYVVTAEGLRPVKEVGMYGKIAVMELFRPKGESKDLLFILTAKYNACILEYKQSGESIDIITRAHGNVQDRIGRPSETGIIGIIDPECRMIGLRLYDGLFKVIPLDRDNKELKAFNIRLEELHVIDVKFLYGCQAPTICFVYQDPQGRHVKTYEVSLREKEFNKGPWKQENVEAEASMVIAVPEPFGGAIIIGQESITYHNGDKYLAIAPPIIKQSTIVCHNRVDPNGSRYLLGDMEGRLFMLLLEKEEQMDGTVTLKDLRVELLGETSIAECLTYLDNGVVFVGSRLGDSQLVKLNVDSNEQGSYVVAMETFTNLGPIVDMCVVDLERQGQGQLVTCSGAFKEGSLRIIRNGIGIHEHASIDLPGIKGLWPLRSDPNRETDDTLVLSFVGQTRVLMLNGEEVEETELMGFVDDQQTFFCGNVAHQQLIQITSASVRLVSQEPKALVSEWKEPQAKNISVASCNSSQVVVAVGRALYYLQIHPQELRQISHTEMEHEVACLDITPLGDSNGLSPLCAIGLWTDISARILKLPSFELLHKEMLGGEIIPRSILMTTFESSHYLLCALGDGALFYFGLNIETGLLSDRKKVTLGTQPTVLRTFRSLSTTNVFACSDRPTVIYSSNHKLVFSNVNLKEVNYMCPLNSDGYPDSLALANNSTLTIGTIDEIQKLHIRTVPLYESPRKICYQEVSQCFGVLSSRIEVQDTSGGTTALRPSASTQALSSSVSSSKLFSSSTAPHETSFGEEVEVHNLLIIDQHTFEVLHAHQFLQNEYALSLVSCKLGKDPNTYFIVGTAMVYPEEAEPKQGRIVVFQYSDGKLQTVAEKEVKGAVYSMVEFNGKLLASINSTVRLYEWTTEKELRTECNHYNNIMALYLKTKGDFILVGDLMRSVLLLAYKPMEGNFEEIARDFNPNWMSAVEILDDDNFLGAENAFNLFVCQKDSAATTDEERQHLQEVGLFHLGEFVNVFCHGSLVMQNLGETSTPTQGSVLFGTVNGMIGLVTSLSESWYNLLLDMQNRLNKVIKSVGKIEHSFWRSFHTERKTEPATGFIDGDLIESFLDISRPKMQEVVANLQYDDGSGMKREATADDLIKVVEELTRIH

Compound | DC50 (ER in MCF-7 cells; MCF-7 cells, 16 hrs treatment) | MCF7 ICW Dmax (%) (ER in MCF-7 cells; MCF-7 cells, 16 hrs treatment) | pIC50 (ERα_LBD(GST)) | Dmax (ER in MCF-7 cells; [1]) | pIC50 (CRBN/DDB1) | DC50 (ER in T47D cells; T47D cells, 16 hrs treatment) | T47D ICW Dmax (%) (ER in T47D cells; [2]) | Dmax (ER in T47D cells) | Dmax (ER in MCF-7 cells; [3]) | Dmax (ER in T47D cells; [2])
COc1cc(N2CCC(CN3CCN4c5ccc6c(c5OC[C@@H]4C3)CN([C@H]3CCC(=O)NC3=O)C6=O)CC2)ccc1[C@@H]1c2[nH]c3ccccc3c2C[C@@H](C)N1CC(F)F [Compound A12, (S)-3-((S)-7-((1-(4-((1R,3R)-2-(2,2-difluoroethyl)-3-methyl-2,3,4,9-tetrahydro-1H-pyrido[3,4-b]indol-1-yl)-3-methoxyphenyl)piperidin-4-yl)methyl)-1-oxo-1,3,5,5a,6,7,8,9-octahydro-2H-pyrazino[1′,2′:4,5][1,4]oxazino[2,3-e]isoindol-2-yl)piperidine-2,6-dione] | < 0.001 µM | B (“B”: >50% and <75%) | > 8.00 |  |  |  |  |  |  | 
COc1cc(N2CCC(CN3CCN4c5ccc6c(c5OC[C@H]4C3)CN([C@H]3CCC(=O)NC3=O)C6=O)CC2)ccc1[C@@H]1c2[nH]c3ccccc3c2C[C@@H](C)N1CC(F)F [Compound A19, (S)-3-((R)-7-((1-(4-((1R,3R)-2-(2,2-difluoroethyl)-3-methyl-2,3,4,9-tetrahydro-1H-pyrido[3,4-b]indol-1-yl)-3-methoxyphenyl)piperidin-4-yl)methyl)-1-oxo-1,3,5,5a,6,7,8,9-octahydro-2H-pyrazino[1′,2′:4,5][1,4]oxazino[2,3-c]isoindol-2-yl)piperidine-2,6-dione] | 0.001 to 0.01 µM |  | > 8.00 | 50 to 75% | 6.30 to 7.30 |  |  |  |  | 
COc1cc(N2CCC(CN3CCN4c5cc6c(cc5OC[C@@H]4C3)C(=O)N([C@H]3CCC(=O)NC3=O)C6)CC2)ccc1[C@@H]1c2[nH]c3ccccc3c2C[C@@H](C)N1CC(F)F [Compound A28, (S)-3-((S)-3-((1-(4-((1R,3R)-2-(2,2-difluoroethyl)-3-methyl-2,3,4,9-tetrahydro-1H-pyrido[3,4-b]indol-1-yl)-3-methoxyphenyl)piperidin-4-yl)methyl)-8-oxo-1,2,3,4,4a,5,8,10-octahydro-9H-pyrazino[1′,2′:4,5][1,4]oxazino[2,3-f]isoindol-9-yl)piperidine-2,6-dione] | < 0.001 µM | C (“C”: 25%-50%) | > 8.00 |  | 6.30 to 7.30 | < 0.001 µM | B (“B”: >50% and <75%) |  |  | 
COc1cc(N2CCC(CN3CCN4c5cc6c(cc5OC[C@@H]4C3)C(=O)N([C@H]3CCC(=O)NC3=O)C6)CC2)ccc1[C@@H]1c2[nH]c3ccccc3c2C[C@@H](C)N1CC(F)F [Compound A29, (S)-3-((S)-3-((1-(4-((1R,3R)-2-(2,2-difluoroethyl)-3-methyl-2,3,4,9-tetrahydro-1H-pyrido[3,4-b]indol-1-yl)-3-methoxyphenyl)piperidin-4-yl)methyl)-8-oxo-1,2,3,4,4a,5,8,10-octahydro-9H-pyrazino[1′,2′:4,5][1,4]oxazino[2,3-f]isoindol-9-yl)piperidine-2,6-dione] | < 0.001 µM | B (“B”: >50% and <75%) | > 8.00 |  | 5.30 to 6.30 | < 0.001 µM | A (“A”: >=75%) |  |  | 
COc1cc(N2CCC(CN3CCN4c5ccc6c(c5OC[C@H]4C3)CN([C@H]3CCC(=O)NC3=O)C6=O)CC2)ccc1[C@@H]1c2[nH]c3ccccc3c2C[C@@H](C)N1CC(C)(C)F [Compound A49, (S)-3-((R)-7-((1-(4-((1R,3R)-2-(2-fluoro-2-methylpropyl)-3-methyl-2,3,4,9-tetrahydro-1H-pyrido[3,4-b]indol-1-yl)-3-methoxyphenyl)piperidin-4-yl)methyl)-1-oxo-1,3,5,5a,6,7,8,9-octahydro-2H-pyrazino[1′,2′:4,5][1,4]oxazino[2,3-e]isoindol-2-yl)piperidine-2,6-dione] | < 0.001 µM |  | ≤ 8.00 |  |  | < 0.001 µM |  | 50 to 75% | > 75% | 
COc1cc(N2CCC(CN3CCN(c4ccc(C(=O)N[C@H]5CCC(=O)NC5=O)nc4)CC3)CC2)ccc1[C@@H]1c2[nH]c3ccccc3c2C[C@@H](C)N1CC(F)F [Compound A55, 5-(4-((1-(4-((1R,3R)-2-(2,2-difluoroethyl)-3-methyl-2,3,4,9-tetrahydro-1H-pyrido[3,4-b]indol-1-yl)-3-methoxyphenyl)piperidin-4-yl)methyl)piperazin-1-yl)-N—((S)-2,6-dioxopiperidin-3-yl)picolinamide] | < 0.001 µM |  | > 8.00 |  | < 5.30 |  |  |  |  | 
C[C@H]1Cc2c([nH]c3ccccc23)[C@H](c2cnc(N3CCC4(CC3)C[C@@H](CN3CCN5c6ccc7c(c6OC[C@@H]5C3)CN([C@@H]3CCC(=O)NC3=O)C7=O)CO4)nc2)N1CC(F)F [Compound A59, (R)-3-((S)-7-(((S)-8-(5-((1S,3S)-2-(2,2-difluoroethyl)-3-methyl-2,3,4,9-tetrahydro-1H-pyrido[3,4-b]indol-1-yl)pyrimidin-2-yl)-1-oxa-8-azaspiro[4.5]decan-3-yl)methyl)-1-oxo-1,3,5,5a,6,7,8,9-octahydro-2H-pyrazino[1′,2′:4,5][1,4]oxazino[2,3-e]isoindol-2-yl)piperidine-2,6-dione formate] | < 0.001 µM |  | ≤ 8.00 |  |  | < 0.001 µM |  |  | 50 to 75% | 50 to 75%
C[C@H]1Cc2c([nH]c3ccccc23)[C@H](c2cnc(N3CCC4(CC3)C[C@@H](CN3CCN5c6cc7c(cc6OC[C@H]5C3)C(=O)N([C@@H]3CCC(=O)NC3=O)C7)CO4)nc2)N1CC(F)F [Compound A61, (R)-3-((R)-3-(((S)-8-(5-((1S,3S)-2-(2,2-difluoroethyl)-3-methyl-2,3,4,9-tetrahydro-1H-pyrido[3,4-b]indol-1-yl)pyrimidin-2-yl)-1-oxa-8-azaspiro[4.5]decan-3-yl)methyl)-8-oxo-1,2,3,4,4a,5,8,10-octahydro-9H-pyrazino[1′,2′:4,5][1,4]oxazino[2,3-f]isoindol-9-yl)piperidine-2,6-dione] | < 0.001 µM |  | ≤ 8.00 |  |  | < 0.001 µM |  |  | 50 to 75% | 50 to 75%
C[C@H]1Cc2c([nH]c3ccccc23)[C@H](c2cnc(N3CCC4(CC3)C[C@@H](CN3CCC(c5ccc(N[C@@H]6CCC(=O)NC6=O)cc5)CC3)CO4)nc2)N1CC(F)F [Compound A66, (R)-3-((4-(1-(((S)-8-(5-((1S,3S)-2-(2,2-difluoroethyl)-3-methyl-2,3,4,9-tetrahydro-1H-pyrido[3,4-b]indol-1-yl)pyrimidin-2-yl)-1-oxa-8-azaspiro[4.5]decan-3-yl)methyl)piperidin-4-yl)phenyl)amino)piperidine-2,6-dione] | < 0.001 µM |  |  | 50 to 75% | 6.30 to 7.30 | 0.001 to 0.01 µM |  |  |  | > 75%
C[C@H]1Cc2c([nH]c3ccccc23)[C@H](c2cnc(N3CCC4(CC3)C[C@H](CN3CCC(c5ccc(N[C@H]6CCC(=O)NC6=O)cc5)CC3)CO4)nc2)N1CC(F)F [Compound A67, (S)-3-((4-(1-(((R)-8-(5-((1S,3S)-2-(2,2-difluoroethyl)-3-methyl-2,3,4,9-tetrahydro-1H-pyrido[3,4-b]indol-1-yl)pyrimidin-2-yl)-1-oxa-8-azaspiro[4.5]decan-3-yl)methyl)piperidin-4-yl)phenyl)amino)piperidine-2,6-dione] | < 0.001 µM |  |  | 50 to 75% | 5.30 to 6.30 | < 0.001 µM |  |  |  | 50 to 75%
C[C@@H]1Cc2c([nH]c3ccccc23)[C@@H](c2cnc(N3CCC4(CC3)C[C@@H](CN3CCC(c5ccc(N[C@@H]6CCC(=O)NC6=O)cc5)CC3)CO4)nc2)N1CC(F)F [Compound A70, (3R)-3-((4-(1-((8-(5-((1R,3R)-2-(2,2-difluoroethyl)-3-methyl-2,3,4,9-tetrahydro-1H-pyrido[3,4-b]indol-1-yl)pyrimidin-2-yl)-1-oxa-8-azaspiro[4.5]decan-3-yl)methyl)piperidin-4-yl)phenyl)amino)piperidine-2,6-dione] | < 0.001 µM |  | > 8.00 | 50 to 75% |  | < 0.001 µM |  |  |  | > 75%
